Test results: ChEMBL document CHEMBL3112480, “γ-Alkylidene-γ-lactones and isobutylpyrrol-2(5H)-ones analogues to rubrolides as inhibitors of biofilm formation by gram-positive and gram-negative bacteria” (Bioorg Med Chem Lett, 2014)
Values after ≈ are worked out from the molar mass of the structure shown.

Tests used:
[1] = test system: Staphylococcus aureus; test: Antibacterial activity against Staphylococcus aureus ATCC 25923 assessed as effect on planktonic growth at 0.17 ug/ml after 20 hrs relative to control; assay type: functional
[2] = test system: Staphylococcus epidermidis; test: Antibacterial activity against Staphylococcus epidermidis ATCC 35547 assessed as effect on planktonic growth at 87.5 ug/ml after 20 hrs relative to control; assay type: functional
[3] = test system: Staphylococcus epidermidis; test: Antibacterial activity against Staphylococcus epidermidis ATCC 35547 assessed as effect on planktonic growth at 1.37 ug/ml after 20 hrs relative to control; assay type: functional
[4] = test system: Streptococcus mutans; test: Antibacterial activity against Streptococcus mutans ATCC 25175 assessed as effect on planktonic growth at 21.9 ug/ml after 20 hrs relative to control; assay type: functional
[5] = test system: Pseudomonas aeruginosa; test: Antibacterial activity against Pseudomonas aeruginosa ATCC 27853 assessed as inhibition of biofilm formation after 20 hrs by crystal-violet staining method; assay type: functional, organism-based; conditions: for IC50: ATCC 27853, 20 h
[6] = test system: Staphylococcus epidermidis; test: Antibacterial activity against Staphylococcus epidermidis ATCC 35547 assessed as effect on planktonic growth at 2.73 ug/ml after 20 hrs relative to control; assay type: functional
[7] = test system: Staphylococcus aureus; test: Antibacterial activity against Staphylococcus aureus ATCC 25923 assessed as effect on planktonic growth at 0.34 ug/ml after 20 hrs relative to control; assay type: functional
[8] = test system: Staphylococcus epidermidis; test: Induction of biofilm formation in Staphylococcus epidermidis ATCC 35547 at 87.5 ug/ml after 20 hrs by crystal-violet staining method relative to control; assay type: organism-based
[9] = test system: Pseudomonas aeruginosa; test: Antibacterial activity against Pseudomonas aeruginosa ATCC 27853 assessed as effect on planktonic growth at 0.34 ug/ml after 20 hrs relative to control; assay type: functional
[10] = test system: Staphylococcus aureus; test: Antibacterial activity against Staphylococcus aureus ATCC 25923 assessed as effect on planktonic growth at 43.8 ug/ml after 20 hrs relative to control; assay type: functional
[11] = test system: Staphylococcus aureus; test: Antibacterial activity against Staphylococcus aureus ATCC 25923 assessed as effect on planktonic growth at 0.68 ug/ml after 20 hrs relative to control; assay type: functional
[12] = test system: Staphylococcus epidermidis; test: Antibacterial activity against Staphylococcus epidermidis ATCC 35547 assessed as effect on planktonic growth at 5.5 ug/ml after 20 hrs relative to control; assay type: functional
[13] = test system: Streptococcus mutans; test: Antibacterial activity against Streptococcus mutans ATCC 25175 assessed as effect on planktonic growth at 5.5 ug/ml after 20 hrs relative to control; assay type: functional
[14] = test system: Staphylococcus epidermidis; test: Antibacterial activity against Staphylococcus epidermidis ATCC 35547 assessed as effect on planktonic growth at 21.9 ug/ml after 20 hrs relative to control; assay type: functional
[15] = test system: Streptococcus mutans; test: Antibacterial activity against Streptococcus mutans ATCC 25175 assessed as effect on planktonic growth at 87.5 ug/ml after 20 hrs relative to control; assay type: functional
[16] = test system: Streptococcus mutans; test: Antibacterial activity against Streptococcus mutans ATCC 25175 assessed as effect on planktonic growth at 1.37 ug/ml after 20 hrs relative to control; assay type: functional
[17] = test system: Streptococcus mutans; test: Antibacterial activity against Streptococcus mutans ATCC 25175 assessed as effect on planktonic growth at 43.8 ug/ml after 20 hrs relative to control; assay type: functional
[18] = test system: Staphylococcus epidermidis; test: Antibacterial activity against Staphylococcus epidermidis ATCC 35547 assessed as effect on planktonic growth at 0.34 ug/ml after 20 hrs relative to control; assay type: functional
[19] = test system: Streptococcus mutans; test: Antibacterial activity against Streptococcus mutans ATCC 25175 assessed as effect on planktonic growth at 0.68 ug/ml after 20 hrs relative to control; assay type: functional
[20] = test system: Staphylococcus epidermidis; test: Antibacterial activity against Staphylococcus epidermidis ATCC 35547 assessed as effect on planktonic growth at 0.17 ug/ml after 20 hrs relative to control; assay type: functional
[21] = test system: Pseudomonas aeruginosa; test: Antibacterial activity against Pseudomonas aeruginosa ATCC 27853 assessed as effect on planktonic growth at 10.9 ug/ml after 20 hrs relative to control; assay type: functional
[22] = test system: Staphylococcus aureus; test: Antibacterial activity against Staphylococcus aureus ATCC 25923 assessed as effect on planktonic growth at 21.9 ug/ml after 20 hrs relative to control; assay type: functional
[23] = test system: Pseudomonas aeruginosa; test: Antibacterial activity against Pseudomonas aeruginosa ATCC 27853 assessed as effect on planktonic growth at 43.8 ug/ml after 20 hrs relative to control; assay type: functional
[24] = test system: Pseudomonas aeruginosa; test: Antibacterial activity against Pseudomonas aeruginosa ATCC 27853 assessed as effect on planktonic growth at 21.9 ug/ml after 20 hrs relative to control; assay type: functional
[25] = test system: Pseudomonas aeruginosa; test: Antibacterial activity against Pseudomonas aeruginosa ATCC 27853 assessed as effect on planktonic growth at 2.73 ug/ml after 20 hrs relative to control; assay type: functional
[26] = test system: Staphylococcus epidermidis; test: Antibacterial activity against Staphylococcus epidermidis ATCC 35547 assessed as effect on planktonic growth at 0.68 ug/ml after 20 hrs relative to control; assay type: functional
[27] = test system: Staphylococcus aureus; test: Antibacterial activity against Staphylococcus aureus ATCC 25923 assessed as effect on planktonic growth at 10.9 ug/ml after 20 hrs relative to control; assay type: functional
[28] = test system: Pseudomonas aeruginosa; test: Antibacterial activity against Pseudomonas aeruginosa ATCC 27853 assessed as effect on planktonic growth at 87.5 ug/ml after 20 hrs relative to control; assay type: functional
[29] = test system: Pseudomonas aeruginosa; test: Antibacterial activity against Pseudomonas aeruginosa ATCC 27853 assessed as effect on planktonic growth at 0.17 ug/ml after 20 hrs relative to control; assay type: functional
[30] = test system: Staphylococcus epidermidis; test: Antibacterial activity against Staphylococcus epidermidis ATCC 35547 assessed as effect on planktonic growth at 43.8 ug/ml after 20 hrs relative to control; assay type: functional
[31] = test system: Staphylococcus epidermidis; test: Antibacterial activity against Staphylococcus epidermidis ATCC 35547 assessed as effect on planktonic growth at 10.9 ug/ml after 20 hrs relative to control; assay type: functional
[32] = test system: Pseudomonas aeruginosa; test: Antibacterial activity against Pseudomonas aeruginosa ATCC 27853 assessed as effect on planktonic growth at 1.37 ug/ml after 20 hrs relative to control; assay type: functional
[33] = test system: Staphylococcus aureus; test: Antibacterial activity against Staphylococcus aureus ATCC 25923 assessed as effect on planktonic growth at 2.73 ug/ml after 20 hrs relative to control; assay type: functional
[34] = test system: Streptococcus mutans; test: Antibacterial activity against Streptococcus mutans ATCC 25175 assessed as effect on planktonic growth at 10.9 ug/ml after 20 hrs relative to control; assay type: functional
[35] = test system: Pseudomonas aeruginosa; test: Antibacterial activity against Pseudomonas aeruginosa ATCC 27853 assessed as effect on planktonic growth at 0.68 ug/ml after 20 hrs relative to control; assay type: functional
[36] = test system: Staphylococcus epidermidis; test: Antibacterial activity against Staphylococcus epidermidis ATCC 35547 assessed as inhibition of biofilm formation after 20 hrs by crystal-violet staining method; assay type: functional, organism-based
[37] = test system: Staphylococcus aureus; test: Antibacterial activity against Staphylococcus aureus ATCC 25923 assessed as effect on planktonic growth at 1.37 ug/ml after 20 hrs relative to control; assay type: functional
[38] = test system: Staphylococcus aureus; test: Antibacterial activity against Staphylococcus aureus ATCC 25923 assessed as effect on planktonic growth at 87.5 ug/ml after 20 hrs relative to control; assay type: functional
[39] = test system: Streptococcus mutans; test: Antibacterial activity against Streptococcus mutans ATCC 25175 assessed as effect on planktonic growth at 0.17 ug/ml after 20 hrs relative to control; assay type: functional
[40] = test system: Staphylococcus aureus; test: Antibacterial activity against Staphylococcus aureus ATCC 25923 assessed as effect on planktonic growth at 5.5 ug/ml after 20 hrs relative to control; assay type: functional
[41] = test system: Streptococcus mutans; test: Antibacterial activity against Streptococcus mutans ATCC 25175 assessed as effect on planktonic growth at 2.73 ug/ml after 20 hrs relative to control; assay type: functional
[42] = test system: Pseudomonas aeruginosa; test: Antibacterial activity against Pseudomonas aeruginosa ATCC 27853 assessed as effect on planktonic growth at 5.5 ug/ml after 20 hrs relative to control; assay type: functional
[43] = test system: Streptococcus mutans; test: Antibacterial activity against Streptococcus mutans ATCC 25175 assessed as effect on planktonic growth at 0.34 ug/ml after 20 hrs relative to control; assay type: functional

Structure (SMILES): COc1ccccc1C1=C(Br)C(=O)N(CC(C)C)C1(O)Cc1ccc(C(F)(F)F)cc1 (stereo not drawn)
- Activity [1]: -4.8%
- Activity [2]: 0.5%
- Activity [3]: 0.1%
- Activity [4]: -26.9%
- inhibition [5]: Dose-dependent effect
- IC50 [5]: > 87.5 µg/mL
- Activity [6]: 3.5%
- Activity [7]: -2.8%
- Activity [8]: 143.6%
- Activity [9]: 3.7%
- Activity [10]: -17%
- Activity [11]: -5.6%
- Activity [12]: 10.7%
- Activity [13]: -18.7%
- Activity [14]: 13.8%
- Activity [15]: -36.3%
- Activity [16]: 12.4%
- Activity [17]: -29.9%
- Activity [18]: 1.9%
- Activity [19]: 10.9%
- Activity [20]: 6.3%
- Activity [21]: -16.2%
- Activity [22]: -17%
- Activity [23]: -7.8%
- Activity [24]: -12.2%
- Activity [25]: -18.4%
- Activity [26]: 1.4%
- Activity [27]: -5.8%
- Activity [28]: -10.8%
- Activity [29]: 4.7%
- Activity [30]: 16.3%
- Activity [31]: 16.4%
- Activity [32]: -19.3%
- Activity [33]: 0.5%
- Activity [34]: -23.9%
- Activity [35]: -6.5%
- inhibition [36]: Dose-dependent effect
- Activity [37]: 2.5%
- Activity [38]: -15.4%
- Activity [39]: 0.7%
- Activity [40]: -4.1%
- Activity [41]: 1.7%
- Activity [42]: -17.2%
- Activity [43]: 6.2%

Structure (SMILES): COc1cccc(CC2(O)C(c3cc(Cl)ccc3OC)=C(Br)C(=O)N2CC(C)C)c1 (stereo not drawn)
- Activity [1]: 2%
- Activity [2]: 14.5%
- Activity [3]: 4.7%
- Activity [4]: -0.6%
- inhibition [5]: Dose-dependent effect
- IC50 [5]: 2.2 µg/mL (≈ 4.45 µM)
- Activity [6]: 3.4%
- Activity [7]: 0.7%
- Activity [8]: 46.9%
- Activity [9]: -5.8%
- Activity [10]: 0.7%
- Activity [11]: -5%
- Activity [12]: 6.4%
- Activity [13]: 1.6%
- Activity [14]: 6.9%
- Activity [15]: 9%
- Activity [16]: -8.7%
- Activity [17]: 6.5%
- Activity [18]: 3.3%
- Activity [19]: -12.5%
- Activity [20]: 10%
- Activity [21]: -3.3%
- Activity [22]: -15.1%
- Activity [23]: -2.3%
- Activity [24]: -3.7%
- Activity [25]: -18.9%
- Activity [26]: 5.1%
- Activity [27]: -9.9%
- Activity [28]: -3.6%
- Activity [29]: -4%
- Activity [30]: 15.7%
- Activity [31]: -0.3%
- Activity [32]: -4.2%
- Activity [33]: 2.3%
- Activity [34]: -3.7%
- Activity [35]: -6.7%
- inhibition [36]: Dose-dependent effect
- Activity [37]: 6.8%
- Activity [38]: 22.1%
- Activity [39]: -14%
- Activity [40]: -8.1%
- Activity [41]: 0.3%
- Activity [42]: -5.5%
- Activity [43]: -12.5%
